Measured values reported in the NIST ThermoML archive (doi:10.1021/acs.jced.6b00202).
Numbers after ± are expanded uncertainties.

COC(C)(C)C [2-methoxy-2-methylpropane]
Liquid, Brillouin light scattering
Settings | speed of sound [m/s]
343.24 K, 10000 kPa | 941 ± 9.5
348.1 K, 5500 kPa | 874.9 ± 9
348.12 K, 7000 kPa | 890.7 ± 9.1
348.16 K, 4000 kPa | 858.5 ± 8.7
348.16 K, 8500 kPa | 907.4 ± 9.2
348.17 K, 10000 kPa | 915.3 ± 9.3
348.22 K, 1000 kPa | 829.7 ± 8.4
348.22 K, 2500 kPa | 844.7 ± 8.5
353.05 K, 5500 kPa | 858.5 ± 8.8
353.1 K, 7000 kPa | 868.9 ± 8.9
353.11 K, 10000 kPa | 903.3 ± 9.2
353.2 K, 2500 kPa | 825.4 ± 8.4
353.22 K, 4000 kPa | 841.4 ± 8.5
353.23 K, 8500 kPa | 889.4 ± 9.1
353.25 K, 1000 kPa | 800 ± 8.2
358.08 K, 7000 kPa | 852.1 ± 8.7
358.09 K, 5500 kPa | 835.6 ± 8.6
358.14 K, 8500 kPa | 866.9 ± 8.9
358.15 K, 1000 kPa | 779.2 ± 8
358.18 K, 10000 kPa | 883.2 ± 9.1
358.19 K, 2500 kPa | 802.1 ± 8.2
358.19 K, 4000 kPa | 816.3 ± 8.3
363.06 K, 1000 kPa | 761.1 ± 7.7
363.09 K, 2500 kPa | 775.4 ± 7.9
363.09 K, 5500 kPa | 811.7 ± 8.4
363.14 K, 7000 kPa | 833.6 ± 8.6
363.18 K, 8500 kPa | 844.2 ± 8.7
363.23 K, 4000 kPa | 796.3 ± 8.1
363.24 K, 10000 kPa | 863.5 ± 8.9
368.06 K, 5500 kPa | 796.6 ± 8.3
368.08 K, 10000 kPa | 844.9 ± 8.6
368.13 K, 7000 kPa | 813 ± 8.4
368.15 K, 1000 kPa | 734.3 ± 7.5
368.16 K, 4000 kPa | 777 ± 7.9
368.21 K, 8500 kPa | 831.5 ± 8.5
368.25 K, 2500 kPa | 754.9 ± 7.7
373.07 K, 1000 kPa | 713.9 ± 7.3
373.07 K, 10000 kPa | 828.1 ± 8.5
373.11 K, 8500 kPa | 811.5 ± 8.4
373.12 K, 5500 kPa | 770.2 ± 8
373.16 K, 4000 kPa | 753.8 ± 7.7
373.17 K, 2500 kPa | 733.6 ± 7.5
373.24 K, 7000 kPa | 791.5 ± 8.3
378.06 K, 4000 kPa | 732.9 ± 7.5
378.07 K, 5500 kPa | 751.9 ± 7.9
378.07 K, 7000 kPa | 770.5 ± 8.1
378.13 K, 2500 kPa | 711.8 ± 7.3
378.13 K, 8500 kPa | 791.5 ± 8.2
378.22 K, 1000 kPa | 691.3 ± 7.1
378.25 K, 10000 kPa | 804 ± 8.3
383.07 K, 1000 kPa | 666.2 ± 6.9
383.08 K, 4000 kPa | 713 ± 7.3
383.12 K, 2500 kPa | 690.6 ± 7.1
383.13 K, 7000 kPa | 753.8 ± 7.9
383.15 K, 8500 kPa | 769.5 ± 8
383.18 K, 5500 kPa | 731.2 ± 7.7
383.21 K, 10000 kPa | 789.5 ± 8.2
388.09 K, 5500 kPa | 711.4 ± 7.5
388.16 K, 7000 kPa | 730.1 ± 7.7
388.2 K, 4000 kPa | 690 ± 7.1

Settings | speed of sound [m/s]
348.24 K, Liquid, Brillouin Light Scattering | 797.5 ± 8
353.11 K, Liquid, Brillouin Light Scattering | 781.5 ± 7.9
358.22 K, Liquid, Brillouin Light Scattering | 748.6 ± 7.6
363.16 K, Liquid, Brillouin Light Scattering | 727.1 ± 7.3
368.17 K, Liquid, Brillouin Light Scattering | 707.1 ± 7.1
373.05 K, Liquid, Brillouin Light Scattering | 698.9 ± 7.1
378.05 K, Liquid, Brillouin Light Scattering | 668.3 ± 6.8
378.1 K, Gas, Brillouin light scattering | 171.6 ± 2
383.08 K, Liquid, Brillouin Light Scattering | 646.4 ± 6.5
388.11 K, Liquid, Brillouin Light Scattering | 627.5 ± 6.4
388.2 K, Gas, Brillouin light scattering | 170.9 ± 2
